# Data published in ChEMBL document CHEMBL5055650, “4-Acyl Pyrrole Capped HDAC Inhibitors: A New Scaffold for Hybrid Inhibitors of BET Proteins and Histone Deacetylases as Antileukemia Drug Leads” (J Med Chem, 2021).
# Active and inactive are the calls of the source. The calls are words filed in the database; no cut-off is given here.
# Experiments:
# [1] = biological target: T1, Protein deacetylase HDAC6 (Homo sapiens, UniProt Q9UBN7); experiment: Inhibition of human recombinant HDAC6 assessed as fluorescence using fluorogenic substrate ZMAL incubated for 90 min by microplate reader
# T1 sequence (Q9UBN7 whole entry): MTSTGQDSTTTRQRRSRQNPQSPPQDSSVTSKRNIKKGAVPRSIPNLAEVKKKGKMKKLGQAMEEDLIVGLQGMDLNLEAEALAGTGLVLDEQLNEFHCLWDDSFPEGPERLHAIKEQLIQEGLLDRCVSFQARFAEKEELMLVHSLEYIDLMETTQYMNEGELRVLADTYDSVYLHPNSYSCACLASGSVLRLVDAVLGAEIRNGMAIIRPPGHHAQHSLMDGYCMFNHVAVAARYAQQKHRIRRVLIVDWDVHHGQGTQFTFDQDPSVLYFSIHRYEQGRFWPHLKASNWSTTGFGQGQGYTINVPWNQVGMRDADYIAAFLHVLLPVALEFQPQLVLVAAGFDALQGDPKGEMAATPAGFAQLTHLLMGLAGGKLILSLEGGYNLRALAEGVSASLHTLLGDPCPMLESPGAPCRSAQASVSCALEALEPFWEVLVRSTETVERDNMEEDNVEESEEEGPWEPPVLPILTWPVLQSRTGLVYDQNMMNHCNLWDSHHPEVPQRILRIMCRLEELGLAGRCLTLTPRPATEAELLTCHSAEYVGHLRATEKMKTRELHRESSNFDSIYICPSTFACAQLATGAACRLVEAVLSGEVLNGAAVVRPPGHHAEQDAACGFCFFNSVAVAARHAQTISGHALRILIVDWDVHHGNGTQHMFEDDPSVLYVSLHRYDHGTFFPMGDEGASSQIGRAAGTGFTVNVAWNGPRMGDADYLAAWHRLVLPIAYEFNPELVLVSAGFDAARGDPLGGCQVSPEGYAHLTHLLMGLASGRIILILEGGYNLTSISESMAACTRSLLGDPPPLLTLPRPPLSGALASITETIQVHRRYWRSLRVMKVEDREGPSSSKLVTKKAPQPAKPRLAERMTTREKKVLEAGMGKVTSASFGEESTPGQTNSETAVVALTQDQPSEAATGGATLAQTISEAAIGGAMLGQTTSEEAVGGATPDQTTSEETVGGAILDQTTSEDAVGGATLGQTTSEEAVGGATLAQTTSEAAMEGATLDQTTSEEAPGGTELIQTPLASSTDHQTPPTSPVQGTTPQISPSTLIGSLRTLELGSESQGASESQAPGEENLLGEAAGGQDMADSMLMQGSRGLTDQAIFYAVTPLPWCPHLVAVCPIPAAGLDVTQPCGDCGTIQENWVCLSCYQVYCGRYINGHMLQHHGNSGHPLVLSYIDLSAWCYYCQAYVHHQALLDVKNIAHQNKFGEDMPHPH
# [2] = biological target: Bromodomain-containing protein 4 (Homo sapiens, UniProt O60885); experiment: Binding affinity to human BRD4 domain 1 (unknown origin) assessed as dissociation constant by isothermal titration calorimetry assay
# [3] = biological target: Histone deacetylase 1 (Homo sapiens, UniProt Q13547); experiment: Inhibition of human recombinant HDAC1 assessed as fluorescence using fluorogenic substrate ZMAL incubated for 90 min by microplate reader
# Histone deacetylase 1, sequence (Q13547 whole entry): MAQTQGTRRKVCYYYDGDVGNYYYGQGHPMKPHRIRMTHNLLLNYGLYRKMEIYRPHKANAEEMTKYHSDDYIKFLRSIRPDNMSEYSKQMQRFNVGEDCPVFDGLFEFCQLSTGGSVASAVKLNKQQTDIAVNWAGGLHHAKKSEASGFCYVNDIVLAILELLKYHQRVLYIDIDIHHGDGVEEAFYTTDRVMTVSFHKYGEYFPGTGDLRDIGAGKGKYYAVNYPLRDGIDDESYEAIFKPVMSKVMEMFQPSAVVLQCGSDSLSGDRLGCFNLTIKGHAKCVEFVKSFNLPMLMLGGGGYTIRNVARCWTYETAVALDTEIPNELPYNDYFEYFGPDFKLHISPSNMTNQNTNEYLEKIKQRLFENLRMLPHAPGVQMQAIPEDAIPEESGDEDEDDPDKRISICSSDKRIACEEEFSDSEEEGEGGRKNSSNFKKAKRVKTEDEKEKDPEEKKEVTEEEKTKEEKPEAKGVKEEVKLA
# [4] = tested on: MOLT-4; experiment: Cytotoxicity against human MOLT-4 cells assessed as cell viability at 5 uM by CellTiter-Glo luminescent assay; assay type: functional; details: read-out: Activity
# [5] = tested on: HL-60; experiment: Cytotoxicity against human HL-60 cells assessed as cell viability at 5 uM by CellTiter-Glo luminescent assay; assay type: functional; details: read-out: Activity
# [6] = tested on: TALL-1; experiment: Cytotoxicity against human TALL-1 cells assessed as cell viability at 5 uM by CellTiter-Glo luminescent assay; assay type: functional; details: read-out: Activity
# [7] = biological target: T2, Bromodomain-containing protein 3 (Homo sapiens, UniProt Q15059); experiment: Binding affinity to human BRD3 domain 1 assessed as dissociation constant by isothermal titration calorimetry assay
# T2 sequence (Q15059 whole entry, the tested form may be a part): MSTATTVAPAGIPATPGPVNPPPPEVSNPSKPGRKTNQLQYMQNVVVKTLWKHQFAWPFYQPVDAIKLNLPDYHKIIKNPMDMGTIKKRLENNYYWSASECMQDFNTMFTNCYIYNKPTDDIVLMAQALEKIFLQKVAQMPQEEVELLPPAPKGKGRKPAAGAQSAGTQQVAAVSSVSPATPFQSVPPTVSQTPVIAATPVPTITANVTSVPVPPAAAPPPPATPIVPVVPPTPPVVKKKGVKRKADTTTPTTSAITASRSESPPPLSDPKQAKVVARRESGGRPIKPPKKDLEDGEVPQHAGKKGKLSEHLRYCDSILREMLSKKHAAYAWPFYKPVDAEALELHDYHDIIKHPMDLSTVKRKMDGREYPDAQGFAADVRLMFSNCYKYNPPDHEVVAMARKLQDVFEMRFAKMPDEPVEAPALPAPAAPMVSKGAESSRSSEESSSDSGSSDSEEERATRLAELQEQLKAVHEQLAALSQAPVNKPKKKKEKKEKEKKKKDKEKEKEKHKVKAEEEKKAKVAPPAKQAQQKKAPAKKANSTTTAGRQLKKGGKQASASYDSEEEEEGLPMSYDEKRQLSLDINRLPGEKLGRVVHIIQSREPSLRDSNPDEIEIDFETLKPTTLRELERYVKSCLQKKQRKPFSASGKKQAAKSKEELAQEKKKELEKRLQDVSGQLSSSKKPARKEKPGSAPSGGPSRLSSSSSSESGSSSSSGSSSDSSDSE
# [8] = biological target: T3, Bromodomain-containing protein 2 (Homo sapiens, UniProt P25440); experiment: Binding affinity to human BRD2 domain 1 assessed as dissociation constant by isothermal titration calorimetry assay
# T3 sequence (P25440 whole entry, the tested form may be a part): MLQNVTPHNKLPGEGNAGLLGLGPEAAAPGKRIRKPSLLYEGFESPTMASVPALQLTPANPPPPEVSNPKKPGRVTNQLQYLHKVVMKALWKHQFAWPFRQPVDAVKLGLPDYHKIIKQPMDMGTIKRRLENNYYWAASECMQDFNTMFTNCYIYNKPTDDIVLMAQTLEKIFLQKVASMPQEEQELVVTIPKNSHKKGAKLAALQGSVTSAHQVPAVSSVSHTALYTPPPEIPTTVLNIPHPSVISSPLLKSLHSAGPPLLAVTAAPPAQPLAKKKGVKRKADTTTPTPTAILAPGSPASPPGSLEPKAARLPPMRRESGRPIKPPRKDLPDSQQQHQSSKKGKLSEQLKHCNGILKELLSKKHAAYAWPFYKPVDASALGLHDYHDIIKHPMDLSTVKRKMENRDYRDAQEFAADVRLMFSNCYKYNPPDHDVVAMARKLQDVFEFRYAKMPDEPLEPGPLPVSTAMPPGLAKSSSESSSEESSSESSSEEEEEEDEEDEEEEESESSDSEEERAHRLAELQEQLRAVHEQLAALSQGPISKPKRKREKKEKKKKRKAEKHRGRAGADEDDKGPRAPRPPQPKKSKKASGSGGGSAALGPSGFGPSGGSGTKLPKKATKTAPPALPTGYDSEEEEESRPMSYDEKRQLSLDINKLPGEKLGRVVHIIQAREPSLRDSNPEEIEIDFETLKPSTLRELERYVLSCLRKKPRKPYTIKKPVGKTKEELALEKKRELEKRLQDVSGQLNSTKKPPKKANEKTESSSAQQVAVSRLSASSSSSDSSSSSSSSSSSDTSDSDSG
# [9] = biological target: T2, Bromodomain-containing protein 3; experiment: Binding affinity to human BRD3 domain 2 assessed as dissociation constant by isothermal titration calorimetry assay
# [10] = biological target: T3, Bromodomain-containing protein 2; experiment: Binding affinity to human BRD2 domain 2 assessed as dissociation constant by isothermal titration calorimetry assay
# [11] = tested on: K562; experiment: Anticancer activity against human K562 cells assessed as cell growth inhibition by CellTiter-Glo luminescent assay; assay type: functional, cell-based
# [12] = tested on: REH; experiment: Anticancer activity against human REH cells assessed as cell growth inhibition by CellTiter-Glo luminescent assay; assay type: functional, cell-based
# [13] = tested on: HAL-01; experiment: Anticancer activity against human HAL-01 cells assessed as cell growth inhibition by CellTiter-Glo luminescent assay; assay type: functional, cell-based
# [14] = tested on: HL-60; experiment: Anticancer activity against human HL-60 cells assessed as cell growth inhibition by CellTiter-Glo luminescent assay; assay type: functional, cell-based
# [15] = tested on: HPBALL; experiment: Anticancer activity against human HPBALL cells assessed as cell growth inhibition by CellTiter-Glo luminescent assay; assay type: functional, cell-based
# [16] = tested on: TALL-1; experiment: Anticancer activity against human TALL-1 cells assessed as cell growth inhibition by CellTiter-Glo luminescent assay; assay type: functional, cell-based
# [17] = tested on: HPBALL; experiment: Anticancer activity against human HPBALL cells assessed as reduction in size of colony at 5 uM measured after 24 hrs by colony formation assay; assay type: functional, cell-based
# [18] = tested on: HPBALL; experiment: Anticancer activity against human HPBALL cells assessed as reduction in total number of colony forming units at 5 uM measured after 24 hrs by colony formation assay; assay type: functional, cell-based
# [19] = tested on: K562; experiment: Induction of apoptosis in human K562 cells assessed as apoptosis at 6 uM after 24 to 72 hrs using annexin V/PI followed by flow cytometry; assay type: functional, cell-based; details: time 24-72 hrs
# [20] = tested on: K562; experiment: Induction of apoptosis in human K562 cells assessed as increase cleaved PARP expression measured after 24 to 72 hrs by Western blot analysis; assay type: functional, cell-based; details: time 24-72 hrs
# [21] = biological target: T4, Bromodomain-containing protein 7 (Homo sapiens, UniProt Q9NPI1); experiment: Binding affinity to human BRD7 assessed as dissociation constant by isothermal titration calorimetry assay
# T4 sequence (Q9NPI1 whole entry): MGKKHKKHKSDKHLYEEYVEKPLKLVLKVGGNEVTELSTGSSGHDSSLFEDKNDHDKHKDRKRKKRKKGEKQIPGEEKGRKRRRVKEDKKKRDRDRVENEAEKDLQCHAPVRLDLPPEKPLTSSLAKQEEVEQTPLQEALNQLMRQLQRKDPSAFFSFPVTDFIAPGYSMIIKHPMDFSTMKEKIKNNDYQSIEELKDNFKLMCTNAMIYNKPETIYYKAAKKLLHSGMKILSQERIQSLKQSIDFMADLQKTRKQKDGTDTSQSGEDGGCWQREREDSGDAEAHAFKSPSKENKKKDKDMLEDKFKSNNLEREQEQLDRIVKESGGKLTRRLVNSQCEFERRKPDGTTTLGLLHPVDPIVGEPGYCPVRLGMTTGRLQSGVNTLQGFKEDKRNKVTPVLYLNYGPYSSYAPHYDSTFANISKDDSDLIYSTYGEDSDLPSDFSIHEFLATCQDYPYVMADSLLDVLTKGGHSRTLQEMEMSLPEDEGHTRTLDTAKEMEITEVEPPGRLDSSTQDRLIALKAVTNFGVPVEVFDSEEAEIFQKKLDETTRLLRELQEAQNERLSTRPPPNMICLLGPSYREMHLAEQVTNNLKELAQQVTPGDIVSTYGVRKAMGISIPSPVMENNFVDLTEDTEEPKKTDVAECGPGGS
# [22] = biological target: T5, Histone deacetylase (Homo sapiens) (UniProt Q13547+O15379+Q9UBN7+Q92769+Q9UQL6+Q8WUI4+Q9BY41+Q96DB2+P56524+Q9UKV0+Q969S8); experiment: Inhibition of HDAC in human K562 cells assessed as increase in acetylated alpha-tubulin measured after 48 hrs by Western blot analysis; assay type: cell-based
# [23] = biological target: Histone deacetylase 3 (Homo sapiens, UniProt O15379); experiment: Inhibition of human HDAC3 assessed as target activity using fluorogenic substrate ZMAL for 90 min by microplate reader at 355nm
# Histone deacetylase 3, sequence (O15379 whole entry): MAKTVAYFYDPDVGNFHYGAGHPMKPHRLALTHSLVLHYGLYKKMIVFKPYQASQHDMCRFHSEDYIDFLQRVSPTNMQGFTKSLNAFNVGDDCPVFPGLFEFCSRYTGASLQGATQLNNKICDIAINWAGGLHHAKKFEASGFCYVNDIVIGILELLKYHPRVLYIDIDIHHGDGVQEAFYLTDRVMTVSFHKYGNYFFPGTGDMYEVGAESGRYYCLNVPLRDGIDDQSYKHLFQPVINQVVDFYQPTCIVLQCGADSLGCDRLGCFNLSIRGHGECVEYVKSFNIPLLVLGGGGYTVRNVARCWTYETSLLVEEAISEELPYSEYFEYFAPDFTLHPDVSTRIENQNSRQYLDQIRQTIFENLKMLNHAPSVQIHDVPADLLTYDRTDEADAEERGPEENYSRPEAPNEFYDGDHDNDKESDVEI
# [24] = biological target: Histone deacetylase 2 (Homo sapiens, UniProt Q92769); experiment: Inhibition of human HDAC2 assessed as target activity using fluorogenic substrate ZMAL for 90 min by microplate reader at 355nm
# Histone deacetylase 2, sequence (Q92769 whole entry): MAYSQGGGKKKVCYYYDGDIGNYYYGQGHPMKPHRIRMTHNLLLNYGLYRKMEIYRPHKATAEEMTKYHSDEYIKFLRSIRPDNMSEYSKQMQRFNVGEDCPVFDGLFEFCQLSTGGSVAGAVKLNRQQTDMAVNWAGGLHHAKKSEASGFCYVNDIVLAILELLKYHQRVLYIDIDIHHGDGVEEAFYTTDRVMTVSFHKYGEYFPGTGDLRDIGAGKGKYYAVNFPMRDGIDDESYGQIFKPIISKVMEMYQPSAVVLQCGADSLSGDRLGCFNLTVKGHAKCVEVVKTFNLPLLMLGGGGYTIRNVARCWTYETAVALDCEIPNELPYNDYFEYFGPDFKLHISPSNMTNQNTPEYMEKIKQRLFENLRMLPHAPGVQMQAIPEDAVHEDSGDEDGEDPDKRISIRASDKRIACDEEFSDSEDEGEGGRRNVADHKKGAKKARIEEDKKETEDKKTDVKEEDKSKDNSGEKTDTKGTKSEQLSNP
# [25] = biological target: T5, Histone deacetylase (Homo sapiens); experiment: Inhibition of HDAC in human K562 cells assessed as increase in acetylated histone H3 measured after 48 hrs by Western blot analysis; assay type: cell-based
# [26] = biological target: T5, Histone deacetylase (Homo sapiens); experiment: Inhibition of HDAC in human K562 cells assessed as decrease in MYC expression measured after 24 to 72 hrs by Western blot analysis; assay type: cell-based; details: time 24-72 hrs
Structure (SMILES),IC50 [1] [nM],Kd ([2]; read-out: Kd) [nM],IC50 [3] [nM],viability at 5 µM [4] [%],viability at 5 µM [5] [%],viability at 5 µM [6] [%],other results
COC(=O)CCCCCCCOc1ccc(S(=O)(=O)N2CCOCC2)cc1NC(=O)c1c2c(c(C)n1C)C(=O)CCCC2,> 10000,34,> 10000,68.6,104,70.3,–
CCc1c(C(=O)Nc2cccc(CCC(=O)Nc3ccccc3N)c2)[nH]c(C)c1C(C)=O,> 100000,6920,28200,–,–,–,–
CCc1c(C(=O)Nc2cc(S(=O)(=O)N(CC)CC)ccc2O)[nH]c(C)c1C(C)=O,–,–,–,–,–,–,Kd [7]: 380 nM; Kd [8]: 170 nM; Kd [9]: 490 nM; Kd [10]: 830 nM
Cc1sc2c(c1C)C(c1ccc(Cl)cc1)=N[C@@H](CC(=O)Nc1ccc(O)cc1)c1nnc(C)n1-2 [BIRABRESIB],–,–,–,–,–,–,IC50 [11]: 2840 nM; IC50 [12]: 15300 nM; IC50 [13]: 2530 nM; IC50 [14]: 820 nM; IC50 [15]: 7010 nM; IC50 [16]: 1350 nM
CCc1c(C(=O)Nc2cccc(CCC(=O)OC)c2)[nH]c(C)c1C(C)=O,> 33300,8260,> 33300,–,–,–,–
O=C(CCCCCCNC(=O)c1cnc(N(c2ccccc2)c2ccccc2)nc1)NO [RICOLINOSTAT],–,–,–,–,–,–,IC50 [11]: 6020 nM; IC50 [12]: > 25000 nM; IC50 [13]: > 25000 nM; IC50 [14]: 10400 nM; IC50 [15]: 6700 nM; Activity [19]: Active; Activity [20]: Active; IC50 [16]: 3880 nM

# Now from value to compound, other results behind:
IC50 [1] [nM],Kd ([2]; read-out: Kd) [nM],IC50 [3] [nM],Structure (SMILES),viability at 5 µM [4] [%],viability at 5 µM [5] [%],viability at 5 µM [6] [%],other results
658,11500,900,CCc1c(C(=O)Nc2cccc(CCC(=O)NO)c2)[nH]c(C)c1C(C)=O,–,–,–,–
73,3670,97,CCc1c(C(=O)Nc2cc(S(=O)(=O)Nc3cccc(/C=C/C(=O)NO)c3)ccc2OC)[nH]c(C)c1C(C)=O,106,98.7,85.6,–
620,–,1280,Cn1cccc1C(=O)Nc1cccc(CCC(=O)NO)c1,–,–,–,Kd [2]: Not Active
320,–,330,Cc1c2c(c(C(=O)Nc3cc(S(=O)(=O)N4CCOCC4)ccc3OCCCCCCCC(=O)NO)n1C)CCCCC2=O,115,80.8,82.3,Activity [17]: Active; Activity [18]: Active
80,2660,142,CCc1c(C(=O)Nc2cc(/C=C/C(=O)NO)ccc2O)[nH]c(C)c1C(C)=O,105,88.2,87.6,–
45,4500,125,CCc1c(C(=O)Nc2cccc(/C=C/C(=O)NO)c2)[nH]c(C)c1C(C)=O,–,–,–,Kd [21]: > 10000 nM; IC50 [11]: 7380 nM; IC50 [12]: > 25000 nM; inhibition [22]: Active; IC50 [13]: > 25000 nM; IC50 [23]: 149 nM; IC50 [24]: 168 nM; IC50 [14]: > 25000 nM; Kd [7]: > 10000 nM; Kd [8]: 7700 nM; IC50 [15]: > 25000 nM; Kd [9]: > 10000 nM; Activity [25]: Active; Activity [26]: Active; IC50 [16]: 5160 nM; Kd [10]: > 10000 nM
